Patent US9200008B2 (ASKA PHARMACEUTICAL CO., LTD., priority 2010, dated 2015)

test system: Human prostate cancer cell lines (PC-3 cells); assay: Measurement of cell death-inducing activity (Test Example 1); format: cell-based; settings: PC-3, 48 h, 48 hours after addition, tested at 10, 1, 0.1, 0.025 and 0.00625 μmol/L, qualitative evaluation of 10 fields, read-out: Concentration showing the cell death-inducing activity (cell death-inducing rate not less than 40%)
Outline: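 PC-3 cells seeded at 1×10^5 cells/well and grown 48 h at 37 °C, 5% CO2, then exposed to compound at 10, 1, 0.1, 0.025 and 0.00625 μmol/L (DMSO control) for a further 48 h. Activity was called where cell death-inducing rate was not less than 40%.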

SMILES | minimal effective concentration [µM]
CCn1nc(-c2ccc(F)cc2OC)cc1NC(=O)OCc1ccc2c(c1)ncn2C [Example 9-218] | 0.025
CCn1cnc2cc(COC(=O)Nc3cc(-c4ccc(F)cc4OC)nn3C)ccc21 [Example 9-219] | 0.025
CCn1nc(-c2ccc(F)cc2OC)cc1NC(=O)OCc1ccc2c(c1)ncn2CC [Example 9-220] | 0.1
COc1cc(Cl)ccc1-c1cc(NC(=O)OCc2ccc3c(c2)ncn3C)n(C)n1 [Example 9-221] | 0.00625
CCn1nc(-c2ccc(Cl)cc2OC)cc1NC(=O)OCc1ccc2c(c1)ncn2C [Example 9-222] | 0.00625
CCn1cnc2cc(COC(=O)Nc3cc(-c4ccc(Cl)cc4OC)nn3C)ccc21 [Example 9-223] | 0.00625
CCn1nc(-c2ccc(Cl)cc2OC)cc1NC(=O)OCc1ccc2c(c1)ncn2CC [Example 9-224] | 0.00625
COc1cc(C)ccc1-c1cc(NC(=O)OCc2ccc3c(c2)ncn3C)n(C)n1 [Example 9-226] | 0.00625
CCn1nc(-c2ccc(C)cc2OC)cc1NC(=O)OCc1ccc2c(c1)ncn2C [Example 9-227] | 0.00625
CCn1cnc2cc(COC(=O)Nc3cc(-c4ccc(C)cc4OC)nn3C)ccc21 [Example 9-228] | 0.00625
CCn1nc(-c2ccc(C)cc2OC)cc1NC(=O)OCc1ccc2c(c1)ncn2CC [Example 9-229] | 0.025
COc1ccc(-c2cc(NC(=O)OCc3ccc4c(c3)ncn4C)n(C)n2)c(OC)c1 [Example 9-230] | 0.025
COc1ccc(-c2cc(NC(=O)OCc3ccc4c(c3)ncn4C)n(C)n2)cc1OC [Example 9-231] | 1
Cc1ccc(-c2cc(NC(=O)OCc3ccc4c(c3)ncn4C)n(C)n2)c(C)c1 [Example 9-233] | 0.00625
CCn1nc(-c2ccc(C)cc2C)cc1NC(=O)OCc1ccc2c(c1)ncn2C [Example 9-234] | 0.025
CCn1cnc2cc(COC(=O)Nc3cc(-c4ccc(C)cc4C)nn3C)ccc21 [Example 9-235] | 0.00625
CCn1nc(-c2ccc(C)cc2C)cc1NC(=O)OCc1ccc2c(c1)ncn2CC [Example 9-236] | 0.1
Cc1ccccc1-c1cc(NC(=O)OCc2ccc3c(c2)nc(C)n3C)n(C)n1 [Example 9-238] | 10
COc1cc(Cl)ccc1-c1cc(NC(=O)OCc2ccc3c(c2)nc(C)n3C)n(C)n1 [Example 9-239] | 0.025
CCn1nc(-c2ccc(C)cc2C)cc1NC(=O)OCc1ccc2c(c1)nc(C)n2C [Example 9-240] | 1
CCc1nc2cc(COC(=O)Nc3cc(-c4ccc(Cl)cc4Cl)nn3C)ccc2n1C [Example 9-241] | 10
CCc1nc2cc(COC(=O)Nc3cc(-c4ccc(Cl)cc4OC)nn3C)ccc2n1C [Example 9-242] | 0.1
COc1ccccc1-c1cc(NC(=O)OCc2ccc3c(c2)nc2n3CCOC2)n(C)n1 [Example 9-243] | 0.1
CCn1nc(-c2ccccc2OC)cc1NC(=O)OCc1ccc2c(c1)nc1n2CCOC1 [Example 9-244] | 1

SMILES | minimal effective concentration [µM]
COc1cc(F)ccc1-c1cc(NC(=O)OCc2ccc3c(c2)nc2n3CCOC2)n(C)n1 [Example 9-245] | 0.025
CCn1nc(-c2ccc(F)cc2OC)cc1NC(=O)OCc1ccc2c(c1)nc1n2CCOC1 [Example 9-246] | 0.1
COc1cc(Cl)ccc1-c1cc(NC(=O)OCc2ccc3c(c2)nc2n3CCOC2)n(C)n1 [Example 9-247] | 0.00625
CCn1nc(-c2ccc(Cl)cc2OC)cc1NC(=O)OCc1ccc2c(c1)nc1n2CCOC1 [Example 9-248] | 0.025
COc1cc(C)ccc1-c1cc(NC(=O)OCc2ccc3c(c2)nc2n3CCOC2)n(C)n1 [Example 9-249] | 0.00625
CCn1nc(-c2ccc(C)cc2OC)cc1NC(=O)OCc1ccc2c(c1)nc1n2CCOC1 [Example 9-250] | 0.025
Cc1ccc(-c2cc(NC(=O)OCc3ccc4c(c3)nc3n4CCOC3)n(C)n2)c(C)c1 [Example 9-251] | 0.025
CCn1nc(-c2ccc(C)cc2C)cc1NC(=O)OCc1ccc2c(c1)nc1n2CCOC1 [Example 9-252] | 0.1
Cc1cc(F)ccc1-c1cc(NC(=O)OCc2ccc3c(c2)nc2n3CCOC2)n(C)n1 [Example 9-253] | 0.1
COc1ccccc1-c1cc(NC(=O)OCc2ccc3c(c2)nc2n3CCC2)n(C)n1 [Example 9-254] | 1
CCn1nc(-c2ccccc2OC)cc1NC(=O)OCc1ccc2c(c1)nc1n2CCC1 [Example 9-255] | 1
COc1cc(F)ccc1-c1cc(NC(=O)OCc2ccc3c(c2)nc2n3CCC2)n(C)n1 [Example 9-256] | 0.1
CCn1nc(-c2ccc(F)cc2OC)cc1NC(=O)OCc1ccc2c(c1)nc1n2CCC1 [Example 9-257] | 0.1
COc1cc(Cl)ccc1-c1cc(NC(=O)OCc2ccc3c(c2)nc2n3CCC2)n(C)n1 [Example 9-258] | 0.025
CCn1nc(-c2ccc(Cl)cc2OC)cc1NC(=O)OCc1ccc2c(c1)nc1n2CCC1 [Example 9-259] | 0.025
Cc1ccc(-c2cc(NC(=O)OCc3ccc4c(c3)nc3n4CCC3)n(C)n2)c(C)c1 [Example 9-260] | 0.025
COc1cc(C)ccc1-c1cc(NC(=O)OCc2ccc3c(c2)nc2n3CCC2)n(C)n1 [Example 9-261] | 0.025
CCn1nc(-c2ccc(C)cc2OC)cc1NC(=O)OCc1ccc2c(c1)nc1n2CCC1 [Example 9-262] | 0.025
COc1ccccc1-c1cc(NC(=O)OCc2ccc3c(c2)nc2n3CCCC2)n(C)n1 [Example 9-263] | 1
CCn1nc(-c2ccccc2OC)cc1NC(=O)OCc1ccc2c(c1)nc1n2CCCC1 [Example 9-264] | 1
COc1cc(F)ccc1-c1cc(NC(=O)OCc2ccc3c(c2)nc2n3CCCC2)n(C)n1 [Example 9-265] | 1
CCn1nc(-c2ccc(F)cc2OC)cc1NC(=O)OCc1ccc2c(c1)nc1n2CCCC1 [Example 9-266] | 1
COc1cc(Cl)ccc1-c1cc(NC(=O)OCc2ccc3c(c2)nc2n3CCCC2)n(C)n1 [Example 9-267] | 0.025
CCn1nc(-c2ccc(Cl)cc2OC)cc1NC(=O)OCc1ccc2c(c1)nc1n2CCCC1 [Example 9-268] | 0.1

SMILES | minimal effective concentration [µM]
COc1cc(C)ccc1-c1cc(NC(=O)OCc2ccc3c(c2)nc2n3CCCC2)n(C)n1 [Example 9-269] | 0.1
CCn1nc(-c2ccc(C)cc2OC)cc1NC(=O)OCc1ccc2c(c1)nc1n2CCCC1 [Example 9-270] | 0.1
Cc1ccc(-c2cc(NC(=O)OCc3ccc4c(c3)nc3n4CCCC3)n(C)n2)c(C)c1 [Example 9-271] | 0.1
COCCn1cnc2cc(COC(=O)Nc3cc(-c4ccc(Cl)cc4OC)nn3C)ccc21 [Example 9-273] | 10
COCc1nc2cc(COC(=O)Nc3cc(-c4ccc(Cl)cc4OC)nn3C)ccc2n1C [Example 9-274] | 1
Cn1nc(-c2ccc(Cl)cc2Cl)cc1NC(=O)OCc1ccc2c(cnn2C)c1 [Example 9-275] | 1
CCn1nc(-c2ccc(Cl)cc2Cl)cc1NC(=O)OCc1ccc2c(cnn2C)c1 [Example 9-276] | 1
Cc1ccccc1-c1cc(NC(=O)OCc2ccc3c(cnn3C)c2)n(C)n1 [Example 9-277] | 10
Cn1nc(-c2ccccc2C(F)(F)F)cc1NC(=O)OCc1ccc2c(cnn2C)c1 [Example 9-278] | 10
CCn1nc(-c2ccc(F)cc2OC)cc1NC(=O)OCc1ccc2c(cnn2C)c1 [Example 9-279] | 1
COc1cc(Cl)ccc1-c1cc(NC(=O)OCc2ccc3c(cnn3C)c2)n(C)n1 [Example 9-280] | 0.00625
CCn1nc(-c2ccc(Cl)cc2OC)cc1NC(=O)OCc1ccc2c(cnn2C)c1 [Example 9-281] | 0.025
COc1cc(C)ccc1-c1cc(NC(=O)OCc2ccc3c(cnn3C)c2)n(C)n1 [Example 9-283] | 0.025
CCn1nc(-c2ccc(C)cc2OC)cc1NC(=O)OCc1ccc2c(cnn2C)c1 [Example 9-284] | 0.1
Cc1ccc(-c2cc(NC(=O)OCc3ccc4c(cnn4C)c3)n(C)n2)c(C)c1 [Example 9-285] | 0.1
CCn1nc(-c2ccc(C)cc2C)cc1NC(=O)OCc1ccc2c(cnn2C)c1 [Example 9-286] | 0.1
COc1ccccc1-c1cc(NC(=O)OCc2ccc3nn(C)cc3c2)n(C)n1 [Example 9-288] | 1
CCn1nc(-c2ccccc2OC)cc1NC(=O)OCc1ccc2nn(C)cc2c1 [Example 9-289] | 1
COc1cc(F)ccc1-c1cc(NC(=O)OCc2ccc3nn(C)cc3c2)n(C)n1 [Example 9-290] | 0.1
COc1cc(Cl)ccc1-c1cc(NC(=O)OCc2ccc3nn(C)cc3c2)n(C)n1 [Example 9-291] | 0.025
CCn1nc(-c2ccc(Cl)cc2OC)cc1NC(=O)OCc1ccc2nn(C)cc2c1 [Example 9-292] | 0.025
COc1cc(C)ccc1-c1cc(NC(=O)OCc2ccc3nn(C)cc3c2)n(C)n1 [Example 9-293] | 0.1
COc1ccc(-c2cc(NC(=O)OCc3ccc4nn(C)cc4c3)n(C)n2)c(OC)c1 [Example 9-294] | 1
Cc1ccc(-c2cc(NC(=O)OCc3ccc4nn(C)cc4c3)n(C)n2)c(C)c1 [Example 9-295] | 0.1
